Experimental data from patent US12673930B2, “Thiophene HSD17B13 inhibitors and uses thereof” (INIPHARM, INC., priority 2020, dated 2026).

Tests used:
HSD17B13 enzyme [1] = biological target: T1, HSD17B13 enzyme (Homo sapiens, UniProt Q7Z5P4); test: LC/MS estrone detection assay (conversion of estradiol to estrone by HSD17B13); type: biochemical; settings: substrate 4 μM estradiol, 6 mM NAD+, 30 nM HSD17B13 enzyme, 2 hours at 26.5° C
T1 construct: His; made in house; host or cells: E. coli
T1 sequence (Q7Z5P4 20-300): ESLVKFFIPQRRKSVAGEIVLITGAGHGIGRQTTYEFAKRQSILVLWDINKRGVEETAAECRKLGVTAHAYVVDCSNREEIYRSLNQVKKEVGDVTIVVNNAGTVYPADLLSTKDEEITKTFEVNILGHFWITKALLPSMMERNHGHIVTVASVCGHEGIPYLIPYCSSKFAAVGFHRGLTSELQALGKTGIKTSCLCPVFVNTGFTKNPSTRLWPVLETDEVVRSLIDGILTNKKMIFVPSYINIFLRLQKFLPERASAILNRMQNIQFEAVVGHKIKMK
Protocol: The liquid chromatography/mass spectrometry (LC/MS) estrone detection assay monitors the conversion of estradiol to estrone by HSD17B13. This assay was performed in a 96 wp format (Eppendorf deep well Plate 96/500) in an 80 μl reaction volume containing: 4 μM estradiol (E2; Cayman; Ser. No. 10/006,315); 6 mM NAD^+ (Sigma; #N0623), and 30 nM HSD17B13 enzyme (in-house; E. coli expressed His-tagged, purified, soluble protein), in a buffer containing 1M potassium phosphate buffer pH 7.4 and 0.5% vehicle (DMSO). Reactions were incubated for 2 hours at 26.5° C., and estradiol (E2) conversion to estrone (E1) was quantitated by LC-MS/MS based analyte detection for E1 using LCMS grade reagents. Reactions were terminated by the addition of two volumes of acetonitrile (MeCN; LCMS grade; CAS #75/05/8) containing deuterated (D4)-E1 as internal standard (Clear Synth; #CS-T-54273; 500 ng/mL final concentration). Samples were applied to pre-prepared Bond Elut-C18 extraction cartridges (3 mL; Agilent; Ser. No. 12/102,028), and washed and eluted in MeCN. Eluates were dried under nitrogen and re-suspended in 60% methanol (LCMS grade methanol; CAS #67/56/1) before submission for analysis. Standard curves for E1 were included for quantification. Analysis of samples was undertaken on a XBridge BEH C18 column (Waters; #186003033) using 0.1% Diethyl Amine in MeCN (mobile phase A; DEA CAS #109-89-7) and 0.1% Diethyl Amine in milli-Q water (mobile phase B) in a 3 min gradient up to 25% B. Analytes were detected in negative mode using MRM analysis, with E2 having a RT of 1.85 min and E1 having a RT of 2 min. Activity of the enzyme in the absence of NAD^+, was subtracted from samples to yield values for specific enzyme activity. Enzyme activity in the presence of test samples was expressed as a percentage of the uninhibited enzyme activity, and plotted versus inhibitor concentration. Non-linear regression was performed using the Morrison equation (see below) for tight binding inhibitors on GraphPad Prism software (GraphPad Software, La Jolla, Calif.). All assessments were undertaken in duplicate evaluations which were pooled during the extraction process and subsequently injected as duplicates for LC-MS/MS analysis. Y=Vo*(1−((((Et+X+Q)−(((Et+X+Q)^2)−4*Et*X)^0.5))/(2*Et))) Morrison equation:
Y=Activity in the presence of inhibitor; Vo=Activity in absence of inhibitor; Et=Total enzyme concentration; X=inhibitor concentration; and Q=(Ki*(1+(S/Km))), where Ki is the inhibition constant, Km is the Michaelis constant, and S is the substrate concentration.

HSD17B13 enzyme [2] = biological target: T1, HSD17B13 enzyme; test: NADH detection assay (fluorescence based Leukotriene B3 (LTB3) assay) for HSD17B13 activity; type: biochemical; settings: substrate 25 μM LTB3, 3 mM NAD+, 125 nM HSD17B13 enzyme, 1 hour at 26.5° C
Protocol: The fluorescence based Leukotriene B3 (LTB3) assay monitors the fluorescence of NADH, which is generated from NAD+ during the dehydrogenation of the substrate LTB3. The reactions were performed in a 384-well plates (Greiner; #655076) in a 20 μl reaction volume containing the following reagents (final concentrations): 25 μM LTB3 (Cayman; #20109); 3 mM NAD^+ (Sigma; #N0623); 125 nM HSD17B13 enzyme (in-house; E. coli expressed His-tagged, purified, soluble protein); 1 M potassium phosphate buffer, pH 7.4; and 1% DMSO. Reactions were initiated by co-addition of NAD+ and enzyme, and monitored for 1 hour at 26.5° C. Generation of NADH was measured as the fluorescence signal (Excitation at 340 nm and Emission at 445 nm) at 1 hour minus the baseline fluorescence at t=0. Fluorescence signals in the absence of LTB3 (negative control values), were subtracted from all values so that the results reflected substrate-dependent production of NADH. NADH standards were included to allow the conversion of relative fluorescence units into rates of enzyme activity. Enzyme activity in the presence of test compounds was expressed as a percentage of the uninhibited enzyme activity, and plotted versus inhibitor concentration. Non-linear regression was performed using a four-parameter logistic model and Microsoft Excel Solver® software. Ten concentrations of inhibitor were tested in duplicate (in the range of 30 μM-2.5 nM). Two independent concentration response assays were performed and the geometric mean is reported, =/−the SEM.

SMILES | IC50 (HSD17B13 enzyme [1]) | IC50 (HSD17B13 enzyme [2])
O=C(Nc1ccsc1C(=O)NCc1c[nH]c2ccccc12)c1ccc(O)c(Cl)c1 [Example 4, N-((1H-indol-3-yl)methyl)-3-(3-chloro-4-hydroxybenzamido)thiophene-2-carboxamide] | ≤ 100 nM | ≤ 1000 nM
O=C(Nc1ccsc1C(=O)NC1COc2ccccc2C1)c1ccc(O)c(Cl)c1 (stereo not drawn) [Example 6, 3-(3-chloro-4-hydroxybenzamido)-N-(chroman-3-yl)thiophene-2-carboxamide] | ≤ 100 nM | ≤ 1000 nM
COc1ccccc1CCNC(=O)c1c(NC(=O)c2ccc(O)c(Cl)c2)sc2c1CCCC2 [Example 14, 2-(3-chloro-4-hydroxybenzamido)-N-(2-methoxyphenethyl)-4,5,6,7-tetrahydrobenzo[b]thiophene-3-carboxamide] | 100 to 1000 nM | 1000 to 5000 nM
COc1ccccc1CCNC(=O)c1c(NC(=O)c2ccc(O)c(F)c2)sc(C)c1C [Example 16, 2-(3-fluoro-4-hydroxybenzamido)-N-(2-methoxyphenethyl)-4,5-dimethylthiophene-3-carboxamide] | ≤ 100 nM | ≤ 1000 nM
CC(C)(C)CCNC(=O)c1sccc1NC(=O)c1cc(F)c(O)c(F)c1 [Example 18, 3-(3,5-difluoro-4-hydroxybenzamido)-N-(3,3-dimethylbutyl)thiophene-2-carboxamide] | ≤ 100 nM | ≤ 1000 nM
CC(C)(C)CCNC(=O)c1sc2cnccc2c1NC(=O)c1ccc(O)c(F)c1 [Example 19, N-(3,3-dimethylbutyl)-3-(3-fluoro-4-hydroxybenzamido)thieno[2,3-c]pyridine-2-carboxamide] | 100 to 1000 nM | > 10000 nM
COc1ccccc1CCNC(=O)c1sccc1NC(=O)c1ccc(S(=O)(=O)NC(=O)c2ccccc2)c(Cl)c1 [Example 24, 3-(4-(N-benzoylsulfamoyl)-3-chlorobenzamido)-N-(2-methoxyphenethyl)thiophene-2-carboxamide] | 1000 to 10000 nM | > 10000 nM
COc1ccccc1CCNC(=O)c1sccc1NC(=O)c1ccc(C(F)(F)C(=O)O)c(F)c1 [Example 27, 2,2-difluoro-2-(2-fluoro-4-((2-((2-methoxyphenethyl)carbamoyl)thiophen-3-yl)carbamoyl)phenyl)acetic acid] | > 10000 nM | > 10000 nM
COc1ccccc1CCNC(=O)c1sccc1NC(=O)c1ccc(N2CCC(C(=O)O)C2)c(Cl)c1 (stereo not drawn) [Example 29, 1-(2-chloro-4-((2-((2-methoxyphenethyl)carbamoyl)thiophen-3-yl)carbamoyl)phenyl)pyrrolidine-3-carboxylic acid] | 1000 to 10000 nM | > 10000 nM
COc1ccccc1CCNC(=O)c1sc2ccccc2c1NC(=O)c1ccc(O)c(Cl)c1 [Example 31, 3-(3-chloro-4-hydroxybenzamido)-N-(2-methoxyphenethyl)benzo[b] thiophene-2-carboxamide] | 100 to 1000 nM | ≤ 1000 nM

The remaining lines, values ahead:

IC50 (HSD17B13 enzyme [1]) | IC50 (HSD17B13 enzyme [2]) | SMILES
100 to 1000 nM | ≤ 1000 nM | CCNC(=O)c1sccc1NC(=O)c1ccc(O)c(Cl)c1 [Example 5, 3-(3-chloro-4-hydroxybenzamido)-N-ethylthiophene-2-carboxamide]
100 to 1000 nM | ≤ 1000 nM | COc1ccncc1CCNC(=O)c1sccc1NC(=O)c1ccc(O)c(Cl)c1 [Example 7, 3-(3-chloro-4-hydroxybenzamido)-N-(2-(4-methoxypyridin-3-yl)ethyl)thiophene-2-carboxamide]
≤ 100 nM | ≤ 1000 nM | COc1ccccc1CNC(=O)c1sccc1NC(=O)c1ccc(O)c(Cl)c1 [Example 8, 3-(3-chloro-4-hydroxybenzamido)-N-(2-methoxybenzyl)thiophene-2-carboxamide]
≤ 100 nM | ≤ 1000 nM | O=C(Nc1ccsc1C(=O)NCCc1ccccc1F)c1ccc(O)c(Cl)c1 [Example 9, 3-(3-chloro-4-hydroxybenzamido)-N-(2-fluorophenethyl)thiophene-2-carboxamide]
> 10000 nM | > 10000 nM | COc1ccccc1CCNC(=O)c1sccc1NC(=O)c1ccncc1 [Example 10, N-(2-((2-methoxyphenethyl)carbamoyl)thiophen-3-yl)isonicotinamide]
100 to 1000 nM | 1000 to 5000 nM | COc1ccccc1CCNC(=O)c1sc2nccnc2c1NC(=O)c1ccc(O)c(Cl)c1 [Example 12, 7-(3-chloro-4-hydroxybenzamido)-N-(2-methoxyphenethyl)thieno[2,3-b]pyrazine-6-carboxamide]
≤ 100 nM | ≤ 1000 nM | COc1ccccc1CCNC(=O)c1ccsc1NC(=O)c1ccc(O)c(Cl)c1 [Example 13, 2-(3-chloro-4-hydroxybenzamido)-N-(2-methoxyphenethyl)thiophene-3-carboxamide]
≤ 100 nM | ≤ 1000 nM | COc1ccccc1CCNC(=O)c1sc(Cl)cc1NC(=O)c1ccc(O)c(Cl)c1 [Example 17, 5-chloro-3-(3-chloro-4-hydroxybenzamido)-N-(2-methoxyphenethyl)thiophene-2-carboxamide]
100 to 1000 nM | > 10000 nM | COc1ccccc1CCNC(=O)c1sccc1NC(=O)Cc1ccc(O)c(Cl)c1 [Example 20, 3-(2-(3-chloro-4-hydroxyphenyl)acetamido)-N-(2-methoxyphenethyl)thiophene-2-carboxamide]
1000 to 10000 nM | > 10000 nM | COc1ccccc1CCNC(=O)c1sccc1NC(=O)c1ccc(OC(F)(F)C(=O)O)c(Cl)c1 [Example 25, 2-(2-chloro-4-((2-((2-methoxyphenethyl)carbamoyl)thiophen-3-yl)carbamoyl)phenoxy)-2,2-difluoroacetic acid]
> 10000 nM | > 10000 nM | COc1ccccc1CCNC(=O)c1sccc1NC(=O)c1ccc(S(N)(=O)=O)c(Cl)c1 [Example 26, 3-(3-chloro-4-sulfamoylbenzamido)-N-(2-methoxyphenethyl)thiophene-2-carboxamide]
> 10000 nM | > 10000 nM | COc1ccccc1CCNC(=O)c1sccc1NC(=O)c1ccc2[nH]nc(Cl)c2c1 [Example 28, 3-chloro-N-(2-((2-methoxyphenethyl)carbamoyl)thiophen-3-yl)-1H-indazole-5-carboxamide]
≤ 100 nM | ≤ 1000 nM | COc1ccccc1CCNC(=O)c1sccc1NC(=O)c1ccc(O)c(F)c1 [Example 30, 3-(3-fluoro-4-hydroxybenzamido)-N-(2-methoxyphenethyl)thiophene-2-carboxamide]
≤ 100 nM | > 10000 nM | COc1ccccc1CCNC(=O)c1sccc1NC(=O)c1ccc(O)c(C(F)(F)F)c1 [Example 33, 3-(4-hydroxy-3-(trifluoromethyl)benzamido)-N-(2-methoxyphenethyl)thiophene-2-carboxamide]
